Consider four molecules from patent publication US8299083B2, “PDE5 inhibitor compositions and methods for treating cardiac indications” (The Johns Hopkins University, priority 2004, dated 2012).

SMILES strings stand for the structures. Where “and” joins values, the source holds several entries; their conditions need not be identical. Equal entries are not always repeated.

The IC50 is the concentration that gives 50% inhibition.

The subject of series [1] is isolated adult murine myocytes. Description: Isoproterenol-stimulated contraction of isolated adult cardiac myocytes. Type of series: cell-based, mouse. To be noted: ODQ plus sildenafil plus ISO. The protocol:
Louis, Mo.) for 6-7 min. Ventricles were gently chopped, filtered (150μ mesh), centrifuged (500 RPM×1 min), and rinsed in Tyrode's solution with increasing calcium (final 1.8 mM Ca^2+). Cells were incubated with 5 μM Indo-1 AM (Molecular Probes), rinsed, and studied at 27° C. by field stimulation in an inverted fluorescence microscope (Diaphot 200; Nikon, Inc). Sarcomere length (IonOptix, MA) and whole cell calcium transients were measured.

The test system of series [2] is total cGMP-esterase activity. Kind of series: cGMP-esterase (low Km cGMP phosphodiesterase) activity of heart and isolated myocytes. Type of series: biochemical, mouse.
The next series relates to PKG-1. Description: PKG-1 activity in isolated adult myocytes. Type of series: cell-based, mouse. As for the experimental part: After 10 min, cells were lysed and PKG-1 activity determined.
For series [3] the following is noted: human, cited from earlier work.
The subject of series [4] is C57BL/6 mice, pressure overload by transverse aortic constriction. Description: In vivo cardiac hemodynamics by pressure-volume analysis, TAC mice. Also on record: species or system mouse. To be noted: 3 wk TAC, compared with sildenafil results. As for the experimental part: (§1) Pressure overload was produced by transverse aortic constriction.
Transthoracic two-dimensional guided M-mode echocardiography was performed in non-anesthetized mice. Measurements were done using an echocardiography system, the SEQUOIA C256 (Siemens, Munich, Del.) with the 15 MHz linear-array transducer. Intact heart hemodynamic analysis was performed as described^90. These studies employed a four-electrode pressure-volume catheter (model SPR-839, Millar Instruments) placed through the left ventricular apex in the open chest anesthetized animal and positioned along the longitudinal axis to record chamber volume by impedance and pressure by micromanometry.
All hemodynamic data were recorded using custom developed software, digitizing signals at 2 KHz. End-diastolic and end-systolic volumes were the average of volumes measured during isovolumic contraction and relaxation, respectively. ESP was the pressure at maximal chamber elastance (P/V ratio)^1. EDP was the diastolic pressure at the lower right hand corner of the pressure-volume loop. Cardiac output was determined from a perivascular flow probe (Transonics, Ithica, N.Y.) placed around the thoracic aorta. Ea was equal to the ratio of end-systolic pressure divided by stroke volume. The volume catheter signal was calibrated for both gain and offset. Gain was determined by setting the catheter-derived cardiac output (equal to pressure-volume loop width times heart rate) to that obtained from the calibrated flow probe value. Offset was determined using the hypertonic saline method Ventricular power was equal to the instantaneous product of pressure times flow, and the peak power was divided by EDV to obtain the power index PMXI^79. […] The slope of this relation Ees was normalized by heart mass and expressed per gm heart mass. Msw was derived from the linear relation between stroke work and EDV from the same set of variably loaded cardiac cycles used to derive Eesn, and is another load-independent assessment of systolic contractile function^4. Tau was obtained from the model: P=Po+ae^−t/□ . . . fitting data during isovolumic relaxation. dP/dt was derived from a digital filter (5-point weighted slope). PFR/EDV was derived from the maximal first derivative of the volume signal during early diastole, divided by EDV.

Series [5] shares this test system. Kind of series: TAC-induced cardiac hypertrophy, remodeling and fibrosis (heart weight/tibia length, histology). Type of series: in vivo, mouse. To be noted: TAC mice, concurrent oral treatment.
Source text: TAC induced marked heart chamber and cellular hypertrophy (+100% by 3-weeks) that progressed to chamber dilation with reduced fractional shortening after 9 weeks. […] TAC induced a time-dependent increase in myocardial fibrosis and myocyte hypertrophy and both were suppressed by PDE5A inhibition (FIG. 1C, e.g. 67% reduction in fibrosis in 9-week hearts, p<0.0001).
as §1
Hearts were fixed with 10% formalin overnight, then embedded in paraffin, sectioned at 5 μm thickness and stained with PAS methenamine. Cardiomyocyte diameter and interstitial collagen fraction were determined using computer-assisted image analysis (Adobe Photoshop 5.0, NIH Image J), with the observer blinded as to tissue source. At least 4-5 different hearts, with five separate fields of cells (total 50-70 cells for each heart) were quantified for cellular analysis.

The test system of a further series is myocardial cGMP. Description: Myocardial cyclic nucleotide levels. Particulars: for whole myocardial cGMP: acute intravenous administration. It is filed as in vivo, mouse. The text has this:
Hearts were washed in ice-cold PBS, homogenized in 6% trichloroacetic acid, centrifuged and extracted with water-saturated ether. The aqueous layer was transferred, vacuum dried, and the pellet resuspended in sodium acetate buffer for cAMP and cGMP enzyme immunoassay (Amersham Pharmacia Biotech, Buckinghamshire, UK).

Series [6] deals with C57bl6 mice, isoproterenol-induced hypertrophy. Description: Chronic isoproterenol infusion (osmotic pump) cardiac hypertrophy. Particulars: 2 weeks. Type of series: in vivo, mouse. The protocol:
Acute increases in cardiac chamber contractility were induced by isoproterenol infusion in control C57b16 mice. The increase in cardiac systolic function was assessed by in vivo pressure-volume relations (FIG. 11E), and is reflected by a widening of the loop and shift of the upper left corner to the left. […] This supports the myocyte effects at the intact heart level. Furthermore, if isoproterenol is infused chronically by means of an implanted osmotic mini-pump, the heart responds by increasing the cardiac mass (hypertrophy) and with some dilation. This is shown for a group of control C57b16 mice (FIGS. 12A and 12B).

The next series has as its system fetal gene expression. Description: Cardiac fetal gene expression (RNA dot blot) in TAC hearts. Type of series: in vivo, mouse. Particulars: 3 wk TAC. The protocol:
RNA samples were prepared from snap-frozen hearts using a ready-to-use reagent for the isolation of total RNA TRIZOL reagent (Life Technology, Gaithersburg, Md.) according to the manufacturer's protocol. RNA dot-blot analysis was performed using a published protocol with a set of oligonucleotide probes^59. Data are shown normalized to GAPDH measured for each respective sample.

The target of a further series is purified PDE5A (Homo sapiens, UniProt O76074). Particulars: cited from earlier work.
A further series concerns ex vivo vascular rings. To be noted: cited from earlier work.
The test system of series [7] is C57bl6 mice, isoproterenol-stimulated heart. Description: Acute isoproterenol-stimulated contractility in intact mice (pressure-volume relations). It is filed as in vivo, mouse. Particulars: acute intravenous administration. The protocol:
Isoproterenol (ISO: 20 ng/kg/minutes i.v.×5 min) with or without PDE5A inhibitor was given to anesthetized intact mice, and in vivo heart function assessed by pressure-volume relations at a fixed atrial pacing rate of 600-650 min^−1. Data were measured at baseline, with ISO, re-baseline, PDE5A-inhibition, and PDE5A inhibition+ISO. The ISO-only response was highly reproducible.

Setting [8] is: inhibitor combined with isoproterenol.

For the molecule `O=c1onc2cnc3ccccc3n12` [ODQ], in [1], the “blunting of ISO response by sildenafil when sGC is inhibited” value was “prevented”.

For `CN1CC(=O)N2[C@H](c3ccc4c(c3)OCO4)c3[nH]c4ccccc4c3C[C@@H]2C1=O` [tadalafil], the “proportion of total cGMP-esterase activity attributable to PDE5” value in series [2] (3 week TAC hearts) is roughly 60%. Besides, the “percent of total cGMP-esterase activity blocked by co-incubation” value in series [2] (sham control hearts (baseline)) is recorded as “approximately 30%”. In the series with PKG-1 (basal conditions, inhibitor alone), the “enhancement of PKG-1 activity” value is reported as roughly 10%. Further, in the series with PKG-1 (setting [8]), the “rise in PKG-1 activity” value is 50% and 70%; the “rise in PKG-1 activity over ISO alone” value was 30%. In series [3] (in vivo, po), the “time of peak plasma concentration post-dose” value is given as “two”. For the same molecule, in [3], the “apparent oral clearance (CL/F)” value is on record as 2.48 L/h and the mean elimination half-life entry is given as “about 17.5 h”.

On to `CCCc1nn(C)c2c(NCc3ccc(OC)c(Cl)c3)nc(COCC(=O)O)nc12` [EMD 360527, [7-(3-Chloro-4-methoxy-benzylamino)-1-methyl-3-propyl-1H-pyrazolo[4,3-d]pyrimidin-5-ylmethoxy]-acetic acid], for which the “cardiac function by pressure-volume analysis” value in series [4] is reported as “near identical physiologic results”. The “TAC-induced hypertrophy and chamber remodeling” value in series [5] is “yielded identical findings”; in series [5] (listed as EMD360527), “prevented the development of both cardiac hypertrophy and accompanying chamber dilation and remodeling”. Also, the “total myocardial cGMP” value in the series with myocardial cGMP (TAC hearts, chronic co-treatment) is reported as “slight decline”. The “whole myocardial cGMP” value in the series on myocardial cGMP is “negligible effect”. In [6], the “development of cardiac hypertrophy” value is recorded as “markedly inhibited the development of cardiac hypertrophy”. Also, the fetal gene expression result with fetal gene expression was “reversed the TAC-induced rise in fetal gene expression”. For the same molecule, the results for the IC50 at purified PDE5A and in the series on ex vivo vascular rings were roughly 10 nM and 1000 nM, respectively.

Consider `CC[C@H](C)[C@@H]1NC(=O)[C@H](CCCNC(=N)N)NC(=O)[C@H](CC(=O)O)NC(=O)[C@H](CCSC)NC(=O)[C@H](CCCNC(=N)N)NC(=O)CNC(=O)CNC(=O)[C@H](Cc2ccccc2)NC(=O)[C@@H](NC(=O)[C@H](CO)NC(=O)[C@H](CO)NC(=O)[C@H](CCCNC(=N)N)NC(=O)[C@H](CCCNC(=N)N)NC(=O)[C@H](CC(C)C)NC(=O)[C@@H](N)CO)CSSC[C@@H](C(=O)N[C@@H](CC(N)=O)C(=O)N[C@@H](CO)C(=O)N[C@@H](Cc2ccccc2)C(=O)N[C@@H](CCCNC(=N)N)C(=O)N[C@@H](Cc2ccc(O)cc2)C(=O)O)NC(=O)CNC(=O)[C@H](CC(C)C)NC(=O)CNC(=O)[C@H](CO)NC(=O)[C@H](CCC(N)=O)NC(=O)[C@H](C)NC(=O)CNC1=O` [ANP, atrial natriuretic peptide], for which the “whole myocardial cGMP” value with myocardial cGMP is “marked rise in myocardial cGMP”. In addition, in series [7], the “isoproterenol-stimulated contractility in intact heart” value was “had no effect on the ISO response in the intact heart”.
